Reference: the supplement of paper PMC10307832

What was measured:
Assay in all cases: relative viability (nuclei count vs DMSO), 5 days (fraction); higher = more cells survive
Bicalutamide + Alpelisib = compound: CC(O)(CS(=O)(=O)c1ccc(F)cc1)C(=O)Nc1ccc(C#N)c(C(F)(F)F)c1 [Bicalutamide] + Cc1nc(NC(=O)N2CCC[C@H]2C(N)=O)sc1-c1ccnc(C(C)(C)C(F)(F)F)c1 [Alpelisib] (partner 2 µM)
Procedure, shortened: (§1)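 Lung cancer cell lines in 1536-well plates were dosed by pin tool the day after seeding, either with one drug alone or with a fixed anchor-drug dose plus five library-drug doses (not always all listed) in √10 steps. After 5 days, cells were fixed and their nuclei stained in one step (final 0.05% Triton X-100, 1% formaldehyde, 1 ug/ml Hoechst), then counted on 4× images. Relative viability is the nuclei count in treated wells divided by that in vehicle wells. Values are medians of duplicate plates.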

[1] = compound: C(C(=O)C(=O)O)Br [Bromopyruvate] + CS(=O)(=O)N1CCN(Cc2cc3nc(-c4cccc5[nH]ncc45)nc(N4CCOCC4)c3s2)CC1 [Pictilisib] (partner 1 µM)
Procedure, shortened: as §1

[2] = compound: C(C(=O)C(=O)O)Br [Bromopyruvate] + CS(=O)(=O)CCNCc1ccc(-c2ccc3ncnc(Nc4ccc(OCc5cccc(F)c5)c(Cl)c4)c3c2)o1 [Lapatinib] (partner 2 µM)
Procedure, shortened: as §1

Bicalutamide + Lapatinib = compound: CC(O)(CS(=O)(=O)c1ccc(F)cc1)C(=O)Nc1ccc(C#N)c(C(F)(F)F)c1 [Bicalutamide] + CS(=O)(=O)CCNCc1ccc(-c2ccc3ncnc(Nc4ccc(OCc5cccc(F)c5)c(Cl)c4)c3c2)o1 [Lapatinib] (partner 2 µM)
Procedure, shortened: as §1

Cell Line	relative viability (Bicalutamide + Alpelisib; first compound 0.08 µM)	relative viability (Bicalutamide + Alpelisib; first compound 0.253 µM)	relative viability (Bicalutamide + Alpelisib; first compound 0.8 µM)	relative viability (Bicalutamide + Alpelisib; first compound 2.53 µM)	relative viability ([1]; first compound 1 µM)	relative viability ([1]; first compound 3.162 µM)	relative viability ([1]; first compound 10 µM)	relative viability ([1]; first compound 31.62 µM)	relative viability ([1]; first compound 100 µM)	relative viability ([2]; first compound 1 µM)	relative viability ([2]; first compound 3.162 µM)	relative viability ([2]; first compound 10 µM)	relative viability ([2]; first compound 31.62 µM)	relative viability ([2]; first compound 100 µM)	relative viability (Bicalutamide + Lapatinib; first compound 0.08 µM)	relative viability (Bicalutamide + Lapatinib; first compound 0.253 µM)	relative viability (Bicalutamide + Lapatinib; first compound 0.8 µM)	relative viability (Bicalutamide + Lapatinib; first compound 2.53 µM)
SK-LU-1	1.12	0.962	1.41	0.848	0.545	0.65	0.616	0.551	0.53	1.06	0.806	0.81	0.823	0.88	0.95	0.828	0.997	0.854
NCI-H2347	1.09	1.09	1.12	0.971	0.899	0.478	0.737	0.541	0.677	0.897	1.02	1.18	0.782	1.15	1.11	0.935	0.989	0.784
HCC-366	0.476	0.255	0.465	0.37	0.157	0.208	0.205	0.143	0.164	1.03	1.02	1.24	1.01	1.05	1.09	1.05	1.12	1
EMC-BAC-2	0.702	0.674	0.791	0.694	0.472	0.557	0.572	0.539	0.622	0.832	0.922	1	0.833	0.912	0.85	0.735	0.912	0.833
NCI-H3122	0.707	0.92	0.821	0.767	0.553	0.664	0.879	0.554	0.567	0.982	1.05	0.961	1.01	1.01	0.983	0.962	1.04	1.04
NCI-H358	0.808	0.904	0.936	0.992	0.342	0.397	0.343	0.326	0.328	0.435	0.449	0.482	0.483	0.451	0.471	0.475	0.524	0.51
NCI-H1944	0.852	0.737	0.869	0.851	0.353	0.354	0.352	0.315	0.365	0.826	0.903	0.932	0.7	0.869	0.857	0.607	0.899	0.904
EPLC-272H	1.05	1.03	0.951	0.809	0.32	0.363	0.266	0.323	0.296	1.02	1.06	0.839	0.916	1.05	0.788	0.771	0.92	0.875
EBC-1	0.885	0.845	0.828	0.776	0.374	0.467	0.412	0.42	0.415	0.225	0.21	0.226	0.205	0.221	0.209	0.206	0.211	0.214
NCI-H1915	1.07	1.12	1.14	1.01	0.95	0.934	0.9	0.955	0.897	0.95	0.98	0.976	0.98	0.991	0.933	0.933	1.06	0.882
NCI-H647	1.32	1.33	1.47	0.858	0.433	0.421	0.393	0.474	0.455	1.02	0.972	1.19	1.15	0.916	1.07	0.954	1.75	0.748
NCI-H1299	1.11	1.13	1.08	1.11	0.779	0.811	0.809	0.664	0.799	0.952	0.991	0.973	0.961	0.958	0.92	0.966	0.971	0.929
NCI-H23	0.692	0.693	0.885	0.557	0.448	0.535	0.433	0.502	0.409	1.05	1.04	1.16	1.06	1.04	1.07	0.987	1.38	0.843
IA-LM	0.801	0.793	0.964	0.782	0.336	0.357	0.328	0.28	0.434	0.772	0.86	0.527	0.816	0.617	0.969	0.958	1.02	0.711
NCI-H650	1.34	1.04	1.35	0.814	0.804	0.778	0.972	0.92	1.01	1.12	1.16	0.966	0.885	0.769	1.04	1.07	1.07	0.644
SK-MES-1	0.903	0.718	1.02	0.858	0.356	0.32	0.427	0.373	0.321	0.417	0.466	0.488	0.432	0.465	0.48	0.456	0.472	0.46
NCI-H2170	0.834	0.767	0.853	0.842	0.435	0.367	0.274	0.319	0.306	0.25	0.284	0.277	0.246	0.293	0.286	0.271	0.268	0.24
NCI-H2087	1.22	0.843	1.16	1.13	0.834	0.984	0.96	0.844	0.886	1.06	1.02	1.09	0.91	1.05	1.24	1.01	1.15	1

Cell Line	relative viability (Bicalutamide + Alpelisib; first compound 0.08 µM)	relative viability (Bicalutamide + Alpelisib; first compound 0.253 µM)	relative viability (Bicalutamide + Alpelisib; first compound 0.8 µM)	relative viability (Bicalutamide + Alpelisib; first compound 2.53 µM)	relative viability ([1]; first compound 1 µM)	relative viability ([1]; first compound 3.162 µM)	relative viability ([1]; first compound 10 µM)	relative viability ([1]; first compound 31.62 µM)	relative viability ([1]; first compound 100 µM)	relative viability ([2]; first compound 1 µM)	relative viability ([2]; first compound 3.162 µM)	relative viability ([2]; first compound 10 µM)	relative viability ([2]; first compound 31.62 µM)	relative viability ([2]; first compound 100 µM)	relative viability (Bicalutamide + Lapatinib; first compound 0.08 µM)	relative viability (Bicalutamide + Lapatinib; first compound 0.253 µM)	relative viability (Bicalutamide + Lapatinib; first compound 0.8 µM)	relative viability (Bicalutamide + Lapatinib; first compound 2.53 µM)
NCI-H838	0.984	0.909	0.984	0.945	0.463	0.446	0.495	0.493	0.448	1.05	0.962	1.01	1.01	0.936	1.09	0.881	1.38	0.734
NCI-H460	0.52	0.429	0.685	0.506	0.483	0.315	0.419	0.358	0.349	0.967	0.881	1.8	1.01	0.967	1.08	0.881	–	0.972
LOU-NH91	0.698	0.608	0.828	0.745	0.588	0.548	0.48	0.516	0.589	0.818	0.706	0.735	0.815	0.824	0.816	0.638	0.856	0.752
NCI-H322M	0.948	0.772	0.882	0.74	0.464	0.536	0.502	0.529	0.56	0.573	0.548	0.485	0.624	0.612	0.576	0.602	0.664	0.572
NCI-H520	1.08	0.945	1.1	0.808	0.264	0.34	0.337	0.293	0.317	0.846	0.966	0.98	0.766	0.739	0.817	0.674	1.01	0.779
NCI-H661	0.594	0.591	0.833	0.829	0.445	0.349	0.458	0.337	0.354	0.52	0.475	0.623	0.526	0.559	0.482	0.493	0.447	0.493
NCI-H727	0.63	0.546	0.471	0.483	0.359	0.417	0.604	0.389	0.339	1.13	0.928	0.862	0.781	0.86	0.945	0.763	1.09	0.77
NCI-H1793	0.763	0.636	0.827	0.687	0.391	0.32	0.305	0.272	0.237	0.593	1.11	0.674	0.842	0.59	0.637	0.645	1.04	0.832
NCI-H1734	0.676	0.59	0.884	0.683	0.493	0.486	0.542	0.551	0.451	1.08	0.944	1.26	1.08	1.12	1.18	0.904	1.25	0.971
LXF-289	1.04	0.952	1.08	1.03	0.756	0.758	0.802	0.867	0.816	0.967	0.879	0.935	0.914	0.959	0.92	0.845	0.991	0.877
H3255	0.697	0.618	1.14	0.649	0.479	0.503	0.45	0.519	0.588	0.272	0.321	0.239	0.249	0.273	0.112	0.239	0.315	0.198
201T	1.05	0.93	1.01	1	0.724	0.692	0.626	0.683	0.7	1.03	1.06	1.03	0.942	1.02	1.07	0.95	1.06	1.02
NCI-H2228	0.779	0.805	0.908	0.58	0.349	0.37	0.402	0.416	0.635	1.45	0.99	1.2	1.12	1.1	0.707	1.04	1.23	1.02
HOP-62	1.31	0.959	1.19	1.12	0.71	0.889	–	0.836	0.988	1.04	1.02	–	1.02	1.02	1.13	0.995	1.05	1.07
CAL-12T	1.39	1.09	1.44	1.1	0.431	0.394	0.534	0.309	0.569	0.669	0.698	0.794	0.748	0.902	0.809	0.661	0.891	0.581
NCI-H596	0.521	0.493	0.588	0.568	0.431	0.396	0.419	0.419	0.423	1.11	1.08	1.15	1.01	1.16	1.02	1.17	1.16	1.18
NCI-H1755	0.914	0.903	0.992	0.853	0.484	0.512	0.448	0.467	0.456	0.988	1.02	1.02	1.07	1.19	1.03	1.06	1.05	0.928
NCI-H2085	0.895	1.04	0.958	0.879	0.429	0.426	0.463	0.437	0.498	0.761	0.784	0.771	0.815	0.707	0.776	0.739	0.839	0.704
